“Also recorded” adds a separate entry of the source.
What was measured:
[1] = test system: PXB cells, SEC and LX2; assay: Aggregation behavior of cells treated with heparin/collagen (live-cell confocal observation); assay type: cell-based, Human; settings: 0.2 mg/mL collagen, 0.5 mg/mL heparin in 100 mM Tris-HCl; 96-well microplate; 2 hours after seeding; FIG. 2
Protocol: PXB cells, SEC and LX2 were used as cells.
The collected cells were mixed at the following ratios and cell amounts to obtain a cell mixture. • total amount of cells: 300,000 cells • cell proportions in tissue: • PXB cells: 65%·SEC: 25%·LX2: 10% Step 1-4
(§1) 100 μL of each of the following solutions was added to the cell mixture at room temperature, suspended until the cells were no longer visible, and then centrifuged (400 g×2 min) to obtain a viscous component. Here, regardless of the presence of heparin and collagen, it was confirmed in advance that the pH of each solution was approximately around 7.4. • (1) 100 mM Tris-HCl buffer solution • (2) collagen-containing solution (0.2 mg/mL collagen in 100 mM Tris-HCl buffer solution*) • (3) collagen and heparin-containing solution (0.2 mg/mL collagen and 0.5 mg/mL heparin in 100 mM Tris-HCl buffer solution) • *Since collagen quickly gelled in a neutral solution at room temperature, equal amounts of a 0.4 mg/mL collagen in 5 mM acetate buffer solution and a 200 mM Tris-HCl buffer solution prepared in advance were mixed in each of the above solutions and used. Step 1-5
After the supernatant was removed from the solution containing the viscous component, HCM was added so that the final volume of the solution was a solution amount of 100 μL to obtain a cell suspension. […]

[2] = Gelation of neutral collagen solution at room temperature; assay type: physicochemical; settings: pH 7.4, room temperature
Protocol: as §1
Since collagen quickly gelled in a neutral solution at room temperature, equal amounts of a 0.4 mg/mL collagen in 5 mM acetate buffer solution and a 200 mM Tris-HCl buffer solution prepared in advance were mixed in each of the above solutions and used. […]

[3] = test system: MRP2; assay: MRP2 immunostaining and image analysis of hepatotoxicity model formed in fibrin gel; assay type: cell-based, Human; settings: 3 days of culture; for expression of MRP2 (fluorescence): 0.2 mg/mL collagen and/or 0.5 mg/mL heparin
Protocol: Regarding hepatotoxicity models treated with each solution, it was evaluated whether there was a difference in the state of adhesion between hepatocytes.
A cell mixture with the following proportions and cell amounts was obtained in the same procedures as Steps 1-1 to 1-3 in Test Example 1. • total amount of cells: 300,000 cells • cell proportions in tissue: • PXB cell: 65%·SEC: 25%·LX2: 10% Step 2-2
After the supernatant was removed from the solution containing the viscous component obtained in Step 2-2, a 20 U/mL thrombin solution (solvent: HCM) was added so that the final volume of the solution was a solution amount of “the number of wells to be seeded”×2 μL to obtain a cell suspension.
2 μL of a 10 mg/mL fibrinogen solution was seeded on a 48-well microplate to form droplets and each cell suspension obtained in Step 2-3 was then added into the droplets, and then left in an incubator for 1 hour to form a fibrin gel.
0.5 mL of HCM (containing Endothelial Cell Growth Supplement) was added to each well in which the fibrin gel was formed.
After HCM was added, culture was continued for 3 days in each well in which the fibrin gel was formed.
After 3 days of culture, the 48-well microplate was removed from the incubator, the medium was removed, washing with PBS was performed, and 300 μL of a 4% paraformaldehyde·phosphate buffer solution (hereinafter referred to as PFA) was then added to each well to fix a hepatotoxicity model (3D model). Then, the PFA was washed thoroughly and removed.
100 μL of a 0.2 (v/v) % TRITON/1 (w/v) % BSA PBS solution (hereinafter referred to as a BSA solution) was added to each well, and left at room temperature for 2 hours.
Anti-MRP2 antibodies were diluted 100-fold with a BSA solution to obtain a primary antibody solution. 100 μL of the primary antibody solution was added to each well and left at 4° C. for 24 hours. Then, the primary antibody solution was washed thoroughly and removed.
Secondary antibodies were diluted 200-fold with a BSA solution to obtain a secondary antibody solution. 100 μL of the secondary antibody solution was added to each well, shielded from light and left at room temperature for 1 hour. Then, the secondary antibody solution was washed thoroughly and removed, and 100 μL of PBS was added to each well.
Images were captured under a confocal microscope. […]
The intensities of the captured images were summed to obtain a fluorescence observation image of each hepatotoxicity model (3D model). […]

[4] = test system: bile canaliculi; assay: Bile acid assay (CLF) confirming formation of bile canaliculi in hepatotoxicity model; assay type: cell-based, Human; settings: collagen 0.3 mg/mL, 6 days of culture
Protocol: A hepatotoxicity model was produced according to the same method as in the method described in Test Examples 1 and 2. However, the collagen concentration was 0.3 mg/mL, and the heparin concentration was 0.05 mg/mL, 0.15 mg/mL, 0.5 mg/mL, or 5.0 mg/mL (all final concentrations).
After 6 days of culture, the medium was replaced with 300 μL of a medium containing 5 μM CLF (FITC-labeled bile acid CORNING #451041) on which the following operation was performed (this assay was performed while cells were alive). After being left in the incubator for 20 min, the tissue was washed with PBS 5 times. The medium was replaced, and observation was performed under a fluorescence microscope.
FIG. 6, FIG. 7, FIG. 8, and FIG. 9 show the results of fluorescence observation after a medium containing CLF was incubated for the hepatotoxicity models produced with different heparin concentrations. […] In each drawing, the scale bar indicates 500 μm. In normal live tissue in which bile canaliculi were favorably formed, it was thought that, since hepatocytes excreted bile acids taken up from the outside of the live tissue into the bile canaliculi, the intensity of fluorescence derived from FITC retained in the cells was low after the CLF treatment.

Row | Substance | aggregation of cells [1] | gelation of solution at room temperature [2] | expression of MRP2 (fluorescence) ([3]; versus control, FIG. 3) | aggregation of cells in hepatotoxicity model ([3]; 0.2 mg/mL collagen, FIG. 3) | expression intensity percentage of MRP2 (expression area percentage per area, image analysis) ([3]; versus control, FIG. 5) | excretion of CLF taken into hepatocytes into the bile canaliculi ([4]; heparin 0.15, 0.5 or 5.0 mg/mL, 5 μM CLF 20 min, FIG. 7-9, (hydrochloride)) | intensity of fluorescence derived from FITC retained in the cells with increasing heparin concentration ([4]; heparin concentration increased, 5 μM CLF)
1 | collagen | aggregation of cells was significantly promoted | quickly gelled at room temperature | expression of MRP2 tended to decrease significantly | cells tended to aggregate excessively | – | – | –
2 | heparin (hydrochloride) | – | did not gel at room temperature for a long time | fluorescence was enhanced as a whole compared to control conditions | – | higher expression intensity percentage of MRP2 than the control | CLF taken into hepatocytes was more efficiently excreted into the bile canaliculi; also recorded: CLF taken into hepatocytes was easily excreted into the bile canaliculi | the intensity of fluorescence derived from FITC retained in the cells decreased

From patent US12723236B2, “Method for producing cell aggregate” (TOPPAN Holdings Inc., priority 2021, dated 2026)
